The source of these data is US20220098201A1, “THE MONOHYDRATE OF ROGARATINIB HYDROCHLORIDE AND SOLID STATES THEREOF” (Bayer Aktiengesellschaft, priority 2019, published 2022).

Data set [1] is described as follows: Slurry experiments of monohydrate (A) in various solvents. The data set is classed as physicochemical. The text has this:
The residues were filtered off and dried at room temperature and ambient humidity. Reproducible preparation was not possible for all solid state forms.

Data set [2] is described as follows: Storage of solid forms in closed vessels at 25° C. and 50° C. The data set is classed as physicochemical. The note with it: for Modification after storage in closed vessels: 12 months, humidity not set.
A short description of data set [3]: Moisture sorption: storage at various humidities, thermogravimetric analysis. The data set is classed as physicochemical. The note with it: for Mass loss after storage / Modification after storage: 25° C., 12 months. How it is done: TGA thermograms were recorded using thermobalances (model TGA7 and Pyris 1) from Perkin-Elmer.
The measurements were performed with a heating rate of 10 Kmin^−1 using open platinum pans. Flow gas was nitrogen. There was no sample preparation.
Their moisture content was then determined by thermogravimetric analysis.

Data set [4] in a line: Crystalline form (XRPD) in coated tablet during storage. The note with it: see Table 5. The class given is physicochemical. How it is done: X-Ray diffraction patterns were recorded at room temperature using XRD-diffractometers X'Pert PRO (PANalytical) and STOE STADI-P (radiation Cu K alpha 1, wavelength 1.5406 Å). There was no sample preparation. All X-Ray reflections are quoted as °2θ (theta) values (peak maxima) with a resolution of ±0.2°.
Tablets with compound III were manufactured according to the method described above and an initial XRPD was recorded.

Data set [5] can be described thus: Stability in brown glass bottle. The class given is physicochemical. Particulars: for Assay calc. on dried substance / Ethanol / Material and colour / Sum of all organic impurities / Water: brown glass bottle.
A short description of data set [6]: Solubility in water compared with free base. The class given is physicochemical. Particulars: compared with the free base.
Another data set is described as follows: Bioavailability. Particulars: stated as result of better solubility than the free base.
Data set [7] is described as follows: Hygroscopicity and chemical stability of the di-hydrochloride on standing in air. The data set is classed as physicochemical.

Consider `COCc1c(-c2cc3cc(C)cc(OC)c3s2)c2c(N)ncnn2c1CN1CCNC(=O)C1.Cl.O` [Compound (III), 4-{[4-amino-6-(methoxymethyl)-5-(7-methoxy-5-methyl-1-benzothiophen-2-yl)pyrrolo[2,1-f][1,2,4]triazin-7-yl]methyl}piperazin-2-one hydrochloride hydrate], for which the Modification residue result in data set [1] (slurry in 1,4-Dioxane, 25 ° C., stirring time 1 week) is reported as “Monohydrate (A)”; in data set [1] (slurry in Acetonitrile/water (1:1), 25 ° C., stirring time 1 week), “Monohydrate (A)”; in data set [1] (slurry in Ethanol, 25 ° C., stirring time 4 weeks) it was “Monohydrate (A)”; in data set [1] (slurry in Ethanol/water (1:1), 25 ° C., stirring time 1 week), “Monohydrate (A)”; in data set [1] (slurry in Isopropanol, 0 ° C., stirring time 1 week), “Monohydrate (A)”; in data set [1] (slurry in Isopropanol, 25 ° C., stirring time 4 weeks), “Monohydrate (A)”. Besides, the Modification residue result is listed as “¾-Hydrate (D)” in data set [1] (slurry in Methanol, 0 ° C., stirring time 2 weeks); “Dihydrate (B)” in data set [1] (slurry in Methanol, 0 ° C., stirring time 5 weeks); “Monohydrate (A)” in data set [1] (slurry in Methanol, 25 ° C., stirring time 1 week); “Monohydrate (A)” in data set [1] (slurry in Tetrahydrofurane/water (1:1), 25 ° C., stirring time 4 weeks); “Monohydrate (A)” in data set [1] (slurry in Toluene, 25 ° C., stirring time 4 weeks). For the same compound, the “Modification after storage in closed vessels” value in data set [2] (25° C.) and in data set [2] (50° C.) was “Monohydrate” each time. Also, the physical stability result in data set [2] (Storage at 25 and 50° C. for 12 month) was “no changes in stability”. Also, the “Mass loss after storage” value in data set [3] (15% r. h.), in data set [3] (85% r. h.) and in data set [3] (97% r. h.) was 3.7% in each case. For the same compound, the Modification after storage entry in data set [3] (15% r. h.), in data set [3] (85% r. h.) and in data set [3] (97% r. h.) was “Monohydrate” each time. In data set [3] (conclusion from moisture sorption tests, 12 month at 15%, 85% and 97% r.h.), the Hygroscopicity result was “not hygroscopic”. Also, the uptake of water result in data set [3] (stored for 12 month at 15% r.h., 85% r.h and 97% r.h.) is listed as “no uptake of water”. Further, the “Stability of the form in the tablet matrix” value in data set [4] is “stable in the tablet matrix and does not change during storage”. Besides, the “Stability during storage over a long period of time” value in data set [5] is given as “very stable during storage”. In addition, the “Assay calc. on dried substance” value is listed as 99.8% in data set [5] (25° C./60% r.h., 3 months); 100.0% in data set [5] (25° C./60% r.h., 6 months); 100.0% in data set [5] (25° C./60% r.h., 9 months); 98.1% in data set [5] (25° C./60% r.h., 12 months); 100.4% in data set [5] (25° C./60% r.h., 18 months); 98.8% in data set [5] (25° C./60% r.h., 24 months). Also, the “Assay calc. on dried substance” value in data set [5] (40° C./75% r.h., 3 months) is listed as 98.4%; in data set [5] (40° C./75% r.h., 6 months), 99.7%; in data set [5] (initial), 100.3%. The Ethanol in data set [5] (25° C./60% r.h., 3 months) was 0.460%; in data set [5] (25° C./60% r.h., 6 months) it was 0.467%; in data set [5] (25° C./60% r.h., 9 months) it was 0.444%; in data set [5] (25° C./60% r.h., 12 months) it was 0.441%; in data set [5] (25° C./60% r.h., 18 months), 0.434%; in data set [5] (25° C./60% r.h., 24 months), 0.415%. In addition, the Ethanol came out at 0.406% in data set [5] (40° C./75% r.h., 3 months); 0.435% in data set [5] (40° C./75% r.h., 6 months); 0.533% in data set [5] (initial). Further, the Material and colour entry in data set [5] (25° C./60% r.h., 3 months) is listed as “slightly grey-tinged solid”; in data set [5] (25° C./60% r.h., 6 months) it was “slightly grey-tinged solid”; in data set [5] (25° C./60% r.h., 9 months), “slightly grey-tinged solid”; in data set [5] (25° C./60% r.h., 12 months), “slightly grey-tinged solid”; in data set [5] (25° C./60% r.h., 18 months), “slightly grey-tinged solid”; in data set [5] (25° C./60% r.h., 24 months), “slightly grey-tinged solid”. The Material and colour result in data set [5] (40° C./75% r.h., 3 months) was “slightly grey-tinged solid”; in data set [5] (40° C./75% r.h., 6 months), “slightly grey-tinged solid”; in data set [5] (initial), “slightly grey-tinged solid”. Further, the “Sum of all organic impurities” value in data set [5] (25° C./60% r.h., 3 months) was determined as 1.08%; in data set [5] (25° C./60% r.h., 6 months) it was 1.05%; in data set [5] (25° C./60% r.h., 9 months), 1.14%; in data set [5] (25° C./60% r.h., 12 months), 1.22%; in data set [5] (25° C./60% r.h., 18 months), 1.17%; in data set [5] (25° C./60% r.h., 24 months), 1.14%. Moreover, the “Sum of all organic impurities” value in data set [5] (40° C./75% r.h., 3 months) was determined as 1.17%; in data set [5] (40° C./75% r.h., 6 months), 1.00%; in data set [5] (initial), 1.03%. Also, the Water in data set [5] (25° C./60% r.h., 3 months) stood at 3.9%; in data set [5] (25° C./60% r.h., 6 months) it was 3.5%; in data set [5] (25° C./60% r.h., 9 months), 3.5%; in data set [5] (25° C./60% r.h., 12 months), 3.6%; in data set [5] (25° C./60% r.h., 18 months), 3.6%; in data set [5] (25° C./60% r.h., 24 months) it was 3.5%. The Water stood at 3.6% in data set [5] (40° C./75% r.h., 3 months); 3.4% in data set [5] (40° C./75% r.h., 6 months); 3.5% in data set [5] (initial). In addition, the chemical stability result in data set [5] (during storage for several years) was “chemically stable”. Besides, the solubility in water result in data set [6] was “significantly better solubility in water”. In addition, in “Bioavailability”, the bioavailability entry is “enhanced bioavailability”.
For the compound `COCc1c(-c2cc3cc(C)cc(OC)c3s2)c2c(N)ncnn2c1CN1CCNC(=O)C1.Cl.Cl` [di-hydrochloride, di-hydrochloride of 4-{[4-Amino-6-(methoxymethyl)-5-(7-methoxy-5-methyl-1-benzothiophen-2-yl)pyrrolo[2,1-f][1,2,4]triazin-7-yl]methyl}piperazin-2-one], the Hygroscopicity result in data set [7] is “very hydroscopic”. Besides, the chemical stability result in data set [7] (on standing in the air) is “loses HCl on standing in the air”.
As for `COCc1c(-c2cc3cc(C)cc(OC)c3s2)c2c(N)ncnn2c1CN1CCNC(=O)C1.Cl.O.O.O` [Trihydrate], in data set [2] (25° C.), the “Modification after storage in closed vessels” value was “Trihydrate”. Also, in data set [3] (85% r. h.), the “Mass loss after storage” value came to 3.3% and the Modification after storage entry is given as “Monohydrate*”. Also, in data set [3] (97% r. h.), the “Mass loss after storage” value stood at 6.0% and the Modification after storage entry is listed as “Monohydrate*”. For the same compound, the “Change of solid form during storage at high humidity” value in data set [3] (storage at high humidity) is “changed into the monohydrate”.
With `COCc1c(-c2cc3cc(C)cc(OC)c3s2)c2c(N)ncnn2c1CN1CCNC(=O)C1.Cl.O.O` [Dihydrate (B)], in data set [2] (closed vessel, within two weeks), the “Change of solid form during storage in a closed vessel” value is listed as “transformed into the monohydrate”. Further, in data set [2] (stored at room temperature, in the course of two weeks), the “Change of solid form of isolated residue” value is “transformed into the Monohydrate”.
